Measured values: US20240026339A1, “COMPOSITION AND THE USE OF CELL LYSIS REAGENTS” (Vilnius University, priority 2022, published 2024)
Values joined by “and” are separate entries in the source; they are usually repeats but may differ in a detail not shown here. Equal values may be shown once. Where a name gives a salt, the structure may show the parent alone.

Tested on: K-562 cells
Assay: Cell lysis efficiency and cDNA yield in bulk (lysis and RT in one mix, PCR, BioAnalyzer/Qubit)
Assay type: cell-based
Conditions: cDNA yield divided by cDNA yield with 0.1% NP40 of the same Part
Protocol: The cells, lysis reagents and reverse transcription reagents are mixed together to create one reaction mix. The mRNA released from the lysed cells is reverse transcribed using oligonucleotides into a copy DNA (cDNA). The resulting cDNA is then purified using AMPure purification kit, PCR-amplified and analysed by capillary electrophoresis (BioAnalyzer). The DNA amount is also evaluated by fluorometer (Qubit) and the cDNA yields between different lysis conditions is compared to the reference (0.1% NP40).
The detailed composition and reaction conditions are provided below. Briefly, cell lysis and RT reaction were carried out in bulk with MCF7 and K562 cells. Samples containing 0.02%-0.6% of different cell lysis reagent were evaluated. After the RT reaction, cDNA was pass through a column to remove cell debris and gDNA, purified with 1.2× AMPure, eluted in 20 μl water, amplified by 12-cycles of PCR, purified reaction product with 1.2× AMPure and analyzed on BioAnalyzer chip.
Different sets of detergents were prepared in DEPC-water. Each set was tested separately. The cDNA yield for each detergent was compared to the cDNA yield obtained with 0.1% NP40 final concentration.
4. Setting Up RT Reaction: • 1. […] The final volume of reaction was 40 uL. • 4. RT reaction was carried out at 50° C. for 60 min followed by inactivation at 85° C. for 5 min. • 5. After RT reaction samples were immediately processed further by passing them through Zymo column for 1 min at 10000 g. • 6. The flow through fraction was cleaned up with 1.2× AMPure beads and eluted in 20 μL of water and processed further.
5. cDNA Amplification: • 7. cDNA amplification mix was prepared as follows:
• 8. 12 μL of cDNA amplification mix were mixed with 8 μL of purified cDNA material resulting in a total of 20 μL solution. • 9. Each sample was transferred to thermocycler and PCR program was started:
• 10. Amplified cDNA was cleaned up with 1.2× AMPure beads and eluted to 20 μL of water. • 11. DNA concentration of each sample was measured with Qubit. Samples were frozen only after cDNA amplification if needed). • 12. Calculate the dilution factor needed to reach 1 ng/uL for 0.1% NP40 sample, which is used as a reference. • 13. Load 1 μL of each sample (diluted as much times as 0.1% NP40 sample) on BioAnalyzer (BioA) HS DNA kit/chip and calculate the cDNA yield (ng/μl).
The “Relative lysis efficiency” was estimated by first quantifying the cDNA yield (ng/μl) obtained at a given lysis condition and then dividing the said cDNA yield by the cDNA yield obtained when using 0.1% NP40.

CCCCCCCCO[C@@H]1O[C@H](CO)[C@@H](O)[C@H](O)[C@H]1O [n-octyl-β-D-glucopyranoside (OBG), n-octyl-β-D-glucopyranoside]
Relative lysis efficiency (single detergent at 0.02%): 0.36 | Relative lysis efficiency (single detergent at 0.1%): 0.36

Triton X-100
Relative lysis efficiency (single detergent at 0.1%): 0.78

Tween 20
Relative lysis efficiency (single detergent at 0.1%): 0.98 and 0.99 | Relative lysis efficiency (single detergent at 0.2%): 0.99 | Relative lysis efficiency (single detergent at 0.3%): 0.99 | Relative lysis efficiency (single detergent at 0.4%): 0.99 | Relative lysis efficiency (single detergent at 0.6%): 1.02

(1-dodecyl) trimethylamonium bromide
Relative lysis efficiency (single detergent at 0.02%): 0.88 | Relative lysis efficiency (single detergent at 0.1%): 0.25

NP40
Relative lysis efficiency (single detergent at 0.1%): 1.00 | Relative lysis efficiency (single detergent at 0.2%): 1.01 | Relative lysis efficiency (single detergent at 0.4%): 0.98 | Relative lysis efficiency (single detergent at 0.6%): 1.18

CCCCCCCCS[C@@H]1O[C@H](CO)[C@@H](O)[C@H](O)[C@H]1O [n-octyl-β-D-thioglucopyranoside (OTG), n-octyl-β-D-thioglucopyranoside]
Relative lysis efficiency (single detergent at 0.02%): 0.37 | Relative lysis efficiency (single detergent at 0.1%): 0.31

Tween 60
Relative lysis efficiency (single detergent at 0.1%): 0.65

C[C@H](CCC(=O)NCCC[N+](C)(C)CCCS(=O)(=O)[O-])[C@H]1CC[C@H]2[C@@H]3[C@H](O)C[C@@H]4C[C@H](O)CC[C@]4(C)[C@H]3C[C@H](O)[C@]12C [CHAPS]
Relative lysis efficiency (single detergent at 0.02%): 0.43 | Relative lysis efficiency (single detergent at 0.1%): 0.43

CCCCCCCCCc1ccc(OCCOCCOCCOCCOCCOCCOCCOCCOCCO)cc1 [Igepal CO630]
Relative lysis efficiency (single detergent at 0.1%): 0.98

C[C@@H]1CC[C@@]2(OC1)O[C@H]1[C@@H](O)[C@H]3[C@@H]4CC[C@H]5C[C@@H](O[C@@H]6O[C@H](CO)[C@H](O[C@@H]7O[C@H](CO)[C@@H](O)[C@H](O[C@@H]8OC[C@@H](O)[C@H](O)[C@H]8O)[C@H]7O[C@@H]7O[C@H](CO)[C@H](O)[C@H](O[C@@H]8O[C@H](CO)[C@@H](O)[C@H](O)[C@H]8O)[C@H]7O)[C@H](O)[C@H]6O)[C@H](O)C[C@]5(C)[C@H]4CC[C@]3(C)[C@H]1[C@@H]2C [Digitonin]
Relative lysis efficiency (single detergent at 0.02%): 0.85 | Relative lysis efficiency (single detergent at 0.1%): 0.85

CCCCCCCCCCCCN(C)CC(=O)O [N-Laurylsarcosine]
Relative lysis efficiency (single detergent at 0.02%): 0.41 | Relative lysis efficiency (single detergent at 0.1%): 0.35

C[C@H](CCC(=O)O)[C@H]1CC[C@H]2[C@@H]3CC[C@@H]4C[C@H](O)CC[C@]4(C)[C@H]3C[C@H](O)[C@]12C [Deoxycholic acid Na salt]
Relative lysis efficiency (single detergent at 0.02%): 0.51 | Relative lysis efficiency (single detergent at 0.1%): 0.24

Tergitol NP40
Relative lysis efficiency (single detergent at 0.1%): 0.63

Tween 80
Relative lysis efficiency (single detergent at 0.1%): 0.50 and 0.73 | Relative lysis efficiency (single detergent at 0.2%): 0.69 | Relative lysis efficiency (single detergent at 0.3%): 0.72 | Relative lysis efficiency (single detergent at 0.4%): 0.71 | Relative lysis efficiency (single detergent at 0.6%): 0.70
